This note sets out measurements from patent publication US8431523B2, “Oligomeric biosurfactants in dermatocosmetic compositions” (priority 2006, dated 2013).

For experiment [1], the system named is E. coli, P. aeruginosa, P. cepacia, S. aureus, including MRSA, S. epidermidis, and C. albicans. It is filed as cell-based. From the text: By “antimicrobial” activity is meant the ability to inhibit the growth of at least one microbial organism selected from the group consisting E. coli, P. aeruginosa, S. aureus and C. albicans, as confirmed by optical density measurement (“OD”).
By “inhibition of growth” is meant reduction or absence of an increase greater than 5% in OD, a dimensionless measure of turbidity that is proportional to the amount of microbial cells present in a sample. For illustrative purposes, a OAB according to the present invention is added to a culture plate on which E. coli is present at a final concentration of about 5×10^3 cfu/ml. The plate is then incubated at about 37° C. for about 24 hours at which time the E. coli is resuspended by shaking, and OD is measured at about 600 nm. Thus, a reduction or absence of an increase greater than 5% in OD confirms the antimicrobial nature of the OAB with respect to E. coli.
Minimum inhibitory concentration (“MIC”) is a method well-known to those of skill in the art for expressing antimicrobial activity. A compound to be tested is serially diluted into growth medium, inoculated with culture and then incubated. The MIC is the lowest dilution of compound that inhibits or prevents growth of the target microorganism.
A further aspect of the present invention is directed to oligomeric acylated biosurfactants having a CMC of less than about 100 ppm in an aqueous environment of MEM Solution that reduces the surface tension of the MEM Solution to less than about […] where the OAB consists essentially of two to nine amino acid residues, at least one of which is charged, and has a MIC of less than 100 ppm for at least two of the following microorganisms: E. coli, P. aeruginosa, P. cepacia, S. aureus, including MRSA, S. epidermidis, and C. albicans. OABs meeting this criterion are selected from the group consisting of: Myr-GR-amide (P300); Myr-KK-amide (P315); Pal-HR-amide (P320); Myr-KK-acid (P347); SEQ ID NO 79 (P367); Myr-GHR-amide (P245); Pal-GHR-amide (P250); Myr-GRK-amide (P303); Pal-G-H—[R]^D-amide (P366); SEQ ID NO 84 (368); SEQ ID NO 58 (P370); SEQ ID NO 59 (P360); SEQ ID NO 60 (P373); SEQ ID NO 61 (P376); SEQ ID NO 62 (P369); SEQ ID NO 63 (P379); SEQ ID NO 64 (P381); SEQ ID NO 65 (P416); SEQ ID NO 66 (P383); and SEQ ID NO 67 (P289).

For experiment [2], the system named is metabolic soluble proteins. The experiment in a line: CBQCA Protein Quantitation Assay (metabolic soluble protein). Format: cell-based. How it is done:
A first aspect of the present invention is directed to OABs having an ability to increase metabolic soluble proteins by at least about 20%. For purposes of the present invention, metabolic soluble protein is measured using the CBQCA Protein Quantitation Assay from Molecular Probes, Inc. (Eugene, Oreg.). This assay is based on aquinoline-2-carboxaldehyde derivative, which specifically reacts with primary amines to form conjugates capable of electrophoretic or chromatographic analysis. More specifically, in the presence of the cyanide anion, the quinoline-2-carboxaldehyde derivative reacts with primary amines, including those on proteins, and produces a highly-fluorescent emission at 550 nm.

Non-standard residues stand in square brackets, D forms with d. Residues, ends and D or L forms follow the SMILES beside them. *: point of attachment. Palmitoyl = CCCCCCCCCCCCCCCC(=O)*; Myristoyl = CCCCCCCCCCCCCC(=O)*

As to `CCCCCCCCCCCCCCCC(=O)NCC(=O)N[C@@H](Cc1c[nH]cn1)C(=O)N[C@H](CCCNC(=N)N)C(N)=O` [P366, Pal-G-H-[R]^D-amide] (Palmitoyl-Gly-His-[dR]-NH2), in experiment [1], the “MIC for at least two of the listed microorganisms” value (shortened to “MIC for at least two”) was “less than 100 ppm”.

With `CCCCCCCCCCCCCCCC(=O)N[C@@H](CCCCN)C(=O)N[C@H](CCCCN)C(N)=O` [P367, Pal-K-[K]^D-amide], in experiment [1], the “MIC for at least two” value is reported as “less than 100 ppm”.

Regarding `CCCCCCCCCCCCCC(=O)N[C@@H](CCCCN)C(=O)N[C@@H](CCCCN)C(=O)N[C@@H](C)C(=O)N[C@@H](CC(C)C)C(=O)N[C@@H](CCCCN)C(=O)N[C@@H](CCCCN)C(N)=O` [P369, Myr-KKALKK-amide] (Myristoyl-KKALKK-NH2), the “MIC for at least two” value in experiment [1] was “less than 100 ppm”.

Regarding `CCCCCCCCCCCCCCCC(=O)N[C@@H](CC(C)C)C(=O)N[C@@H](C)C(=O)N[C@@H](CCCCN)C(=O)N[C@@H](CCCCN)C(N)=O` [P370, Pal-LAKK-amide] (Palmitoyl-LAKK-NH2), in experiment [1], the “MIC for at least two” value was “less than 100 ppm”.

For the molecule `CCCCCCCCCCCCCC(=O)N[C@@H](CCCCN)C(=O)N[C@@H](CCCCN)C(=O)N[C@@H](CO)C(=O)N[C@@H](CC(C)C)C(=O)N[C@@H](CCCCN)C(N)=O` [P373, Myr-KKSLK-amide] (Myristoyl-KKSLK-NH2), the “MIC for at least two” value in experiment [1] was “less than 100 ppm”.

As for `CCCCCCCCCCCCCC(=O)N[C@@H](CC(C)C)C(=O)N[C@@H](C)C(=O)N[C@H](C(=O)N[C@@H](CCCCN)C(=O)N[C@@H](CCCCN)C(N)=O)[C@@H](C)CC` [P376, Myr-LAIKK-amide] (Myristoyl-LAIKK-NH2), in experiment [1], the “MIC for at least two” value is on record as “less than 100 ppm”.

In the case of `CCCCCCCCCCCCCC(=O)N[C@@H](CCCCN)C(=O)N[C@@H](CCCCN)C(=O)N[C@@H](C)C(=O)N[C@@H](CC(C)C)C(=O)N[C@@H](CCCCN)C(=O)N[C@@H](C)C(N)=O` [P379, Myr-KKALKA-amide] (Myristoyl-KKALKA-NH2), the “MIC for at least two” value in experiment [1] is reported as “less than 100 ppm”.

Take `CCCCCCCCCCCCCC(=O)N[C@@H](CC(C)C)C(=O)N[C@@H](CCCCN)C(=O)N[C@@H](CCCCN)C(=O)N[C@@H](C)C(=O)N[C@@H](CC(C)C)C(=O)N[C@@H](CCCCN)C(N)=O` [P381, Myr-LKKALK-amide] (Myristoyl-LKKALK-NH2): the “MIC for at least two” value in experiment [1] is “less than 100 ppm”.

On to `CCCCCCCCCCCCCC(=O)N[C@@H](CO)C(=O)N[C@@H](CC(=O)O)C(=O)NCC(=O)N[C@@H](CCCNC(=N)N)C(N)=O` [P383, Myr-SDGR-amide] (Myristoyl-SDGR-NH2), for which the “MIC for at least two” value in experiment [1] is “less than 100 ppm”.

Turning to `CCCCCCCCCCCCCC(=O)N[C@@H](CCCNC(=N)N)C(N)=O` [P391, Myr-R-amide], the “increases metabolic soluble protein (qualitative)” value in experiment [2] is listed as “increases metabolic soluble protein”.

Consider `CCCCCCCCCCCCCC(=O)N[C@H](C(=O)N[C@H](C(=O)N[C@H](C(=O)N[C@@H](CCCCN)C(=O)N[C@@H](CCCCN)C(=O)N[C@@H](CCCCN)C(N)=O)[C@@H](C)CC)[C@@H](C)CC)[C@@H](C)CC` [P416, Myr-IIIKKK-amide] (Myristoyl-IIIKKK-NH2), for which the “MIC for at least two” value in experiment [1] was “less than 100 ppm”.

For the molecule Myr-III-amide [P420], the “increase metabolic soluble proteins” value in experiment [2] is listed as “at least 20%”.

For the molecule Myr-RH-amide [P393], the “increases metabolic soluble protein (qualitative)” value in experiment [2] is “increases metabolic soluble protein”.

On to Pal-KK-amide [P316], for which the “increases metabolic soluble protein (qualitative)” value in experiment [2] is recorded as “increases metabolic soluble protein”.

For the molecule Pal-RR-amide [P318], the “increases metabolic soluble protein (qualitative)” value in experiment [2] is listed as “increases metabolic soluble protein”.
